Assay results published in PubChem BioAssay (NCI).
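A five-concentration, 48-hour dose response in 96-well plates underlies each endpoint, interpolated linearly between surrounding concentrations. GI50 is the concentration that inhibits growth by half. At the TGI there is no net growth.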

Legend:
Assay in all cases: NCI anticancer screen, dose series, 48 h
DU-145 prostate = test system: DU-145 prostate
OVCAR-4 ovarian = test system: OVCAR-4 ovarian
LOX IMVI melanoma = test system: LOX IMVI melanoma
MOLT-4 leukemia = test system: MOLT-4 leukemia
SK-OV-3 ovarian = test system: SK-OV-3 ovarian
HCT-15 colon = test system: HCT-15 colon
NCI-H226 lung = test system: NCI-H226 lung
SN12C renal = test system: SN12C renal
KM12 colon = test system: KM12 colon
RXF 393 renal = test system: RXF 393 renal

SMILES	GI50 (DU-145 prostate) [µM]	TGI (DU-145 prostate) [µM]	GI50 (OVCAR-4 ovarian) [µM]	TGI (OVCAR-4 ovarian) [µM]	GI50 (LOX IMVI melanoma) [µM]	TGI (LOX IMVI melanoma) [µM]	GI50 (MOLT-4 leukemia) [µM]	TGI (MOLT-4 leukemia) [µM]	GI50 (SK-OV-3 ovarian) [µM]	TGI (SK-OV-3 ovarian) [µM]	GI50 (HCT-15 colon) [µM]	TGI (HCT-15 colon) [µM]	GI50 (NCI-H226 lung) [µM]	TGI (NCI-H226 lung) [µM]	GI50 (SN12C renal) [µM]	TGI (SN12C renal) [µM]	GI50 (KM12 colon) [µM]	TGI (KM12 colon) [µM]	TGI (RXF 393 renal) [µM]	GI50 (RXF 393 renal) [µM]
COC(=O)C12CC(NC(=O)c3csc([C@@H](C[C@H](C(C)C)N(C)C(=O)[C@@H](NC(=O)[C@H]4CCCCN4C)C4CC4)OC(C)=O)n3)(C1)C2	0.0154	> 16.7	0.427	> 16.7	0.0144	> 16.7	0.00745	> 16.7	0.0735	> 16.7	0.112	> 16.7	0.582	> 16.7	0.0207	> 16.7	0.0363	> 16.7	–	–
O=C1OC(c2ccccc2)=N/C1=C\c1ccc(Oc2ccc(Cl)c(Cl)c2)cc1	–	–	–	–	–	–	–	60.6	–	–	–	> 100	–	–	–	> 100	–	> 100	69.3	–
NCCCCC1NC(=O)C(CC(=O)O)NC(=O)CNC(=O)C(CCCN=C(N)N)NC(=O)C(N)CSSCC(C(=O)O)NC(=O)C(CC(=O)O)NC(=O)C2CCCN2C(=O)CNC1=O (stereo unspecified)	> 100	> 100	> 100	> 100	> 100	> 100	–	–	> 100	> 100	> 100	> 100	> 100	> 100	> 100	> 100	> 100	> 100	> 100	> 100
COc1ccc(-c2cc(C(=O)Nc3cc(C(F)(F)F)cc(C(F)(F)F)c3)c3ccccc3n2)cc1	–	–	–	> 100	–	29.1	–	> 100	–	–	–	28.7	–	46.9	–	25.1	–	35.1	21	–
[O-]c1ccccc1C=Nc1ccc2c(c1)CCC2.[O-]c1ccccc1C=Nc1ccc2c(c1)CCC2.[O]=[U+2]=[O]	–	–	> 100	> 100	9.92	> 100	12.4	> 100	> 100	> 100	28.3	> 100	> 100	> 100	> 100	> 100	> 100	> 100	> 100	> 100
O=C1C2=C(C(=O)c3cnccc31)C1C=CC2CC1 (stereo unspecified)	1.8	3.24	0.316	1.15	0.773	2.19	–	–	5.58	10.4	2.28	4.94	5.74	16.2	1.69	3.1	2.65	6.66	2.85	1.51
Cc1ccc(S(=O)(=O)N=NC=C2c3ccccc3N(O)c3ccccc32)cc1	–	–	–	22.8	–	2.76	–	4.11	–	27.9	–	3.63	–	29	–	16.6	–	26.6	–	–
COC(=O)CCC12CCC(=O)C1[C@@H](C(=O)OC)C[C@H]2C(=O)OC (stereo partly specified)	–	–	–	> 100	–	> 100	–	> 100	–	> 100	–	> 100	–	> 100	–	> 100	–	> 100	> 100	–
O=c1cc(-c2ccc(O)cc2)oc2cc(O[C@@H]3O[C@H](CO)[C@@H](O)[C@H](O)[C@H]3O)cc(O)c12	–	> 100	–	> 100	–	> 100	–	> 100	–	> 100	–	> 100	–	> 100	–	> 100	–	> 100	–	–
